In publication PMC10415124 (Nucleic Acids Research, 2023):

What was measured:
Format in all cases: binding
[1] = target: T1, MmTRPT1 (tRNA 2′-phosphotransferase 1) (Mus musculus, UniProt Q8K3A2); assay: crystal structure
T1 sequence (Q8K3A2 1-249): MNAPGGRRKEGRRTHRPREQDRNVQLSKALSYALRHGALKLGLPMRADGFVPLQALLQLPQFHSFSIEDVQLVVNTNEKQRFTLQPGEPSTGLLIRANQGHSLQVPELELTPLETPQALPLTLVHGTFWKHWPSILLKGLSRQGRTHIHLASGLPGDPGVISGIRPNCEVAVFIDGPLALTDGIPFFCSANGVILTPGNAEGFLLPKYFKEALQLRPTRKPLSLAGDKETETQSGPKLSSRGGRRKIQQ

[2] = target: T2, HsTRPT1 (tRNA 2′-phosphotransferase 1) (Homo sapiens, UniProt Q86TN4); assay: crystal structure
T2 sequence (Q86TN4 1-253): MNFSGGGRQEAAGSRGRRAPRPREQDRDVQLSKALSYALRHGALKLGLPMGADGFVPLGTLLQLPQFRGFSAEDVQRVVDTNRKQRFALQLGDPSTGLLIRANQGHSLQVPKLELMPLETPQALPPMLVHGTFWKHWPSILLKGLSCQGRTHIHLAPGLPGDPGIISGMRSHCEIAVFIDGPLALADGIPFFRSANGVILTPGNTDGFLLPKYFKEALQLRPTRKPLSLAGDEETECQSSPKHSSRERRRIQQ

[3] = target: T1, MmTRPT1 (tRNA 2′-phosphotransferase 1); assay: ITC
[4] = target: T2, HsTRPT1 (tRNA 2′-phosphotransferase 1); assay: ITC
[5] = target: T3, ScTRPT1 (TPT1, tRNA 2′-phosphotransferase) (Saccharomyces cerevisiae, UniProt Q12272); assay: ITC and co-crystal structure
T3 sequence (Q12272 1-230): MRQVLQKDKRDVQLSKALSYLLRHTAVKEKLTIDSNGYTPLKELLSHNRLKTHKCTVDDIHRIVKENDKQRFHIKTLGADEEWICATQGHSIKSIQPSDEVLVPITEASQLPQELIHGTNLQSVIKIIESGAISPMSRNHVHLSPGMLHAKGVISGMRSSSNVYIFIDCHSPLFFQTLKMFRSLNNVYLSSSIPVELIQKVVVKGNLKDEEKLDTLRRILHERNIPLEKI

In the case of `Nc1ncnc2c1ncn2[C@@H]1O[C@H](COP(=O)(O)OP(=O)(O)OC[C@H]2O[C@H](OP(=O)(O)O)[C@H](O)[C@@H]2O)[C@@H](O)[C@H]1O` [ADPRp], the crystal structure [1] is reported as “binds to the HsTRPT1/MmTRPT1 monomer” and the crystal structure [2] is reported as “electron density map clearly showed that one ADPRp molecule”.
With `NC(=O)c1ccc[n+]([C@@H]2O[C@H](COP(=O)([O-])OP(=O)(O)OC[C@H]3O[C@@H](n4cnc5c(N)ncnc54)[C@H](O)[C@@H]3O)[C@@H](O)[C@H]2O)c1` [NAD^+] the Kd [3] was 22.3 ± 0.75 µM, the Kd [4] was 11.8 ± 0.32 µM and the Kd [5] was 23.8 ± 1.88 µM.
